In US20230095695A1, “RNAS FOR COMPLEMENT INHIBITION” (Apellis Pharmaceuticals, Inc., priority 2020, published 2023):
Oligonucleotides are written 5' to 3', each unit as a sugar letter and its base; * is a phosphorothioate linkage, no mark a phosphodiester; rarer units and linkages stand in square brackets, end groups in braces. Plain capitals give the bases only. m = 2'-O-methyl; f = 2'-fluoro

Experiments:
[1] = tested on: C3 mRNA; experiment: Dose response experiment (DRC), C3 mRNA knockdown in HeLa cells; assay type: cell-based, human; settings: 10 concentrations from 100 nM in 6-fold dilution steps
Description: The top 12 siRNAs with the best activity at both doses were chosen to be tested in a dose response experiment (DRC). Dose-response experiments were done with siRNA in 10 concentrations transfected in quadruplicates, starting at 100 nM in 6-fold dilutions steps down to ˜10 fM. Mock transfected cells served as control in DRC experiments.
(§1) For each well, the target mRNA level was normalized to the respective GAPDH mRNA level. The activity of a given siRNA was expressed as percent mRNA concentration of the respective target (normalized to GAPDH mRNA) in treated cells, relative to the target mRNA concentration (normalized to GAPDH mRNA) averaged across mock transfected wells (DRCs).

[2] = tested on: C3 mRNA; experiment: Dual dose screen, C3 mRNA knockdown in HepG2 cells (bDNA assay); assay type: cell-based, human; settings: 24 h; for KD @ 0.1 nM: 0.1 nM siRNA; for KD @ 10 nM: 10 nM siRNA
Description: HepG2 cells were obtained from ATCC (ATCC in partnership with LGC Standards, Wesel, Germany, cat. #ATCC-HB-8065) and cultured in MEM Eagle (#M2279, Sigma-Aldrich, Germany), supplemented to contain 10% fetal calf serum (#1248D, Biochrom GmbH, Berlin, Germany), 1× non-essential amino acids (#K0293; Biochrom, Berlin, Germany), 4 mM L-Glutamine (#K0283, Biochrom, Berlin, Germany) and 100 U/ml Penicillin/100 μg/ml Streptomycin (#A2213, Biochrom GmbH, Berlin, Germany) at 37° C. in an atmosphere with 5% C02 in a humidified incubator.
For transfection of HepG2 cells with siRNAs, cells were seeded at a density of 15,000 cells/well into collagen-coated 96-well tissue culture plates (#655150, GBO, Germany). Transfection of siRNA was carried out with Lipofectamine RNAiMax (Invitrogen/Life Technologies, Karlsruhe, Germany) according to manufacturer's instructions for reverse transfection directly after seeding. In this experiment, a dual dose screen was performed with siRNAs in quadruplicates at 10 nM and 0.1 nM, respectively. siRNAs targeting Aha1 served at the same time as an unspecific control for C3 target mRNA expression and as a positive control to analyze transfection efficiency with regards to Aha1 mRNA level. Firefly-Luciferase and Renilla-Luciferase was used as a mock transfection.
After 24 h of incubation with siRNAs, medium was removed and cells were lysed in 150 μl Medium-Lysis Mixture (1 volume lysis mixture, 2 volumes cell culture medium) and then incubated at 53° C. for 30 minutes. bDNA assay (ThermoFisher QuantiGene RNA assays) was performed according to manufacturer's instructions with a probeset directed to human C3 (accession-#NM_000064 between base 106 and base 907 of the sequence) which had been designed by ThermoFisher Scientific, and synthesized by Metabion International AG, Planegg, Germany. Luminescence was read using 1420 Luminescence Counter (WALLAC VICTOR Light, Perkin Elmer, Rodgau-Jugesheim, Germany) following 30 minutes incubation at room temperature in the dark.
Aha1-siRNA served as an unspecific control for C3 mRNA expression and as a positive control to analyze the transfection efficiency by measuring Aha1 mRNA level by hybridization with an Aha1 probeset. The Aha-1 siRNA used had been formerly selected from a big set of candidate siRNAs, and is known to be very active in vitro and in vivo. Transfection efficiency for each 96-well plate was calculated by analysis of Aha1-knock-down with Aha1-siRNA (normalized to GapDH) compared to an unspecific control. […] Transfection efficiency with siAha1 at the 10 nM dose was about 90%, and the transfection efficiency at the 0.5 nM dose was about 85%.
as §1, with “Activity of the siRNAs was measured by the fluorescence or percent mRNA concentration of the respective targets. For” for “For”, “control wells.” for “mock transfected wells (DRCs).”

Substance | IC50 [1] [nM] | IC80 [1] [nM] | KD @ 0.1 nM [2] [%] | KD @ 10 nM [2] [%]
16 (sense mC*mA*fAmUmGmAfCfUfUmUmGfAmCmGmAmGfUmAmA; antisense mU*fU*mAmCmUmCmGmUmCmAmAmAmGfUmCmAmUmUmG*mU*mU; siRNA) [compound 16] | 0.087 | 6.19 | 67 | 92
9 (sense mA*mU*fCmGmGmAfUfCfUmUmCfAmCmCmGmUfCmAmA; antisense mU*fU*mGmAmCmGmGmUmGmAmAmGmAfUmCmCmGmAmU*mU*mU; siRNA) [compound 9] | 0.751 | – | 63 | 91
4 (sense mU*mC*fCmAmAmGfCfCfUmUmGfGmCmUmCmAfAmUmA; antisense mU*fA*mUmUmGmAmGmCmCmAmAmGmGfCmUmUmGmGmA*mU*mU; siRNA) [compound 4] | 0.208 | 11.8 | 66 | 94
10 (sense mU*mC*fAmAmCmUfUfCfCmUmCfCmUmGmCmGfAmAmA; antisense mU*fU*mUmCmGmCmAmGmGmAmGmGmAfAmGmUmUmGmA*mU*mU; siRNA) [compound 10] | 0.172 | – | 84 | 88
22 (sense mC*mC*fAmAmCmUfAfCfAmUmGfAmAmCmCmUfAmCmA; antisense mU*fG*mUmAmGmGmUmUmCmAmUmGmUfAmGmUmUmGmG*mU*mU; siRNA) [compound 22] | 0.246 | – | 67 | 93
1 (sense mU*mC*fAmAmCmUfCfAfCmCmUfGmUmAmAmUfAmAmA; antisense mU*fU*mUmAmUmUmAmCmAmGmGmUmGfAmGmUmUmGmA*mU*mU; siRNA) [compound 1] | 0.086 | 12.7 | 68 | 92
